Like-named read-outs stand apart in the source and are kept apart here.
Key:
[1] = system: IL-2 release from stimulated Jurkat cells; assay: Human IL-2 Release Phenotypic Assay (Assay 3); type: cell-based; conditions: Jurkat cells (clone E6-1), 200 ng/mL PMA + 300 ng/mL ionomycin, 48 hours, IL-2 by ELISA
Method in brief: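 Jurkat E6-1 cells in RPMI1640/10% FBS were seeded at 50 000 cells/well and incubated overnight at 37° C. Half-log compound dilutions (0.5% final DMSO) were added for 30 min, then cells were stimulated with 200 ng/mL PMA + 300 ng/mL ionomycin for 48 h. IC50 came from a 4-parameter non-linear regression fit.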

FL hMALT1 enzyme = molecular target: T1, FL hMALT1 enzyme (Homo sapiens, UniProt Q9UDY8);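 also: Cell-free protease assay: enzyme preincubated with compound 30 min at room temperature, then cleavage of fluorogenic Ac-LVSR-AMC substrate (100 µM) tracked by fluorescence (ex 360/em 460 nm)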
T1 sequence (Q9UDY8 1-824): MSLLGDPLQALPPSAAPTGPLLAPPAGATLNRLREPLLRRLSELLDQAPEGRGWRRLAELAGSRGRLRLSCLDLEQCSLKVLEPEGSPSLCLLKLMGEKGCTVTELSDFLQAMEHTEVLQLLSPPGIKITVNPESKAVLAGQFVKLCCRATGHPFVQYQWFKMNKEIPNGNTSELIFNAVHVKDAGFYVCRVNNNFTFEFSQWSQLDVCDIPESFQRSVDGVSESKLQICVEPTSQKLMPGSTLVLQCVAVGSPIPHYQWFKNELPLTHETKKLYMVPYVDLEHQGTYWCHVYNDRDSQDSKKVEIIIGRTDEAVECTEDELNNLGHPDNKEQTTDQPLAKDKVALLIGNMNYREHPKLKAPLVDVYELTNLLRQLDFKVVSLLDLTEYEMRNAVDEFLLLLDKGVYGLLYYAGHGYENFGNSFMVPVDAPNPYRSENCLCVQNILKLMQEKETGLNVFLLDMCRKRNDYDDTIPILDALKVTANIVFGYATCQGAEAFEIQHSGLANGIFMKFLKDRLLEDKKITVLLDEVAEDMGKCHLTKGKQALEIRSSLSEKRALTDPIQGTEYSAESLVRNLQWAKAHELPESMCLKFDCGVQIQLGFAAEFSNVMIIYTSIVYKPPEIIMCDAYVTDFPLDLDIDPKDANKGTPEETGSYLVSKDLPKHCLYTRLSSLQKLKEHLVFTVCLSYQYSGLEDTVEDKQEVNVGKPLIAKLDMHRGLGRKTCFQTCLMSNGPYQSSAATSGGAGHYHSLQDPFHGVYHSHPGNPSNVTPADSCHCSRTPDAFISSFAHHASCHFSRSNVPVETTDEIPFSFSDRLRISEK

[2] = molecular target: T2, MALT1-GS-Ub (6-His-hMALT-1 residues 339-715 fused to ubiquitin) (Homo sapiens, UniProt Q9UDY8); assay: biochemical;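 also: in vitro MALT1 protease assay: enzyme preincubated with compound 30 min at room temperature, then cleavage of fluorogenic Ac-LVSR-AMC substrate (100 µM) followed by fluorescence every 15 min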
T2 sequence (Q9UDY8 with tags, fused parts or gaps limits assumed): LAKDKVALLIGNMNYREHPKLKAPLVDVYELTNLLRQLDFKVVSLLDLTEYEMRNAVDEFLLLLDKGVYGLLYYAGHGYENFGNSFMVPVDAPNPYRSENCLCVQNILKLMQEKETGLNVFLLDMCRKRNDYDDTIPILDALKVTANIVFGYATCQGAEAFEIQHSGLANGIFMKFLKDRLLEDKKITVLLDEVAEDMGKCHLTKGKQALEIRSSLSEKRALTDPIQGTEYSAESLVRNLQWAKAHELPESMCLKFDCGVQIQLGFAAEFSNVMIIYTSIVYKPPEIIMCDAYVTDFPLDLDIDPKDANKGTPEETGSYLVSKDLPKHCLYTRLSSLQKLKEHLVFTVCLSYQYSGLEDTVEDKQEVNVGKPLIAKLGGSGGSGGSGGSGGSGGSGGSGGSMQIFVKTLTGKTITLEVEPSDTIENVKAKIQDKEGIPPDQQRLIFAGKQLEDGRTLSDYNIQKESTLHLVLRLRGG
Protocol: (§1) MALT1 protease activity was assessed in vitro by measuring the cleavage of a fluorogenic tetrapeptide substrate.
(§2) A protein (MALT1-GS-Ub) comprising 6-His-hMALT-1 (residues 339-715), fused to ubiquitin with an 8×GGS linker, was expressed in E. coli, and purified using chitin resin to remove contaminants followed by affinity chromatography purification and size-exclusion chromatography, according to standard protocols.
(§3) Briefly, MALT1-GS-Ub (300-600 nM) was incubated with substrate (Ac-LVSR-AMC, 100 μM) in reaction buffer comprising 50 mM HEPES (pH7.0), 25 mM KCl, 0.1% (v/v) CHAPS and 1 mM TCEP.
(§4) Test compounds dissolved in DMSO were dispensed into assay plates (384-well, black, shallow ProxiPlates). 7 μl enzyme solution was added and incubated at room temperature for 30 minutes to allow compound binding to occur. 2 μl substrate solution was then added and the fluorescence (excitation 360 nm, emission 460 nm) read every 15 minutes using a suitable plate reader. Final assay DMSO concentration was 1%. […] IC50 values were calculated using GraphPad Prism using a 4-parameter non-linear regression curve fit.

[3] = molecular target: T2, MALT1-GS-Ub (6-His-hMALT-1 residues 339-715 fused to ubiquitin)
Protocol: as §1, §2, §3, §4

IC50 [1] [nM] | IC50 (FL hMALT1 enzyme) [nM] | IC50 [2] [nM] | IC50 [3] [nM] | Structure (SMILES)
500 | 39 | 270 | – | CN(C(=O)C1CCS(=O)(=O)CC1)[C@@H](c1ccc(NC2Cc3ccccc3C2(C)C)nc1)C(F)(F)F (single isomer, unassigned) [Example 37]
> 10000 | 1200 | – | 3890 | COC1c2ccccc2CC1Nc1ccc([C@H](N(C)C(=O)C2CCS(=O)(=O)CC2)C(F)(F)F)cc1 (stereo in doubt) [Example 11, N-Methyl-N—((S)-2,2,2-trifluoro-1-(4-(((1,2-trans)-1-methoxy-2,3-dihydro-1H-inden-2-yl)amino)phenyl)ethyl)tetrahydro-2H-thiopyran-4-carboxamide 1,1-dioxide]
210 | 6 | – | 240 | CC1c2ccccc2CC1Nc1ccc([C@H](N(C)C(=O)C2CCS(=O)(=O)CC2)C(F)(F)F)cc1 (stereo in doubt) [Example 9, N-Methyl-N—((S)-2,2,2-trifluoro-1-(4-(((1,2-trans)-1-methyl-2,3-dihydro-1H-inden-2-yl)amino)phenyl)ethyl)tetrahydro-2H-thiopyran-4-carboxamide 1,1-dioxide]
